Values joined by “and” are separate entries in the source; they are usually repeats but may differ in a detail not shown here. Identical values can stand only once. “Also recorded” adds a separate entry of the source.
Tests used:
[1] = test system: choline uptake into synaptosomes, hippocampus; experiment: choline uptake into synaptosomes from rat hippocampus; type: biochemical; details: 1 × 10^-6M, n = 10, 1 µM
Description: We also studied the effects of HT1001 on choline uptake in synaptosomes.
We have examined choline uptake in synaptosome preparations from whole brain and hippocampus in the presence of Rb1, HT1001 and HC3.

[2] = test system: T type calcium channel; experiment: T type calcium channel currents in N1E115 neuroblastoma cells (whole-cell patch-clamp); type: cell-based, mouse; details: same concentration (100 μM); N1E-115 cells
Description: (§1) A study of the effects of HT1001 and some pure ginsenosides on calcium channel activity in cultured neuroblastoma cells was conducted.
(§2) Neuroblastoma Cell Culture. Mouse neuroblastoma cells (N1E115) were cultured in Dulbecco's modified Eagle's medium (GIBCO) containing 10% fetal bovine serum at 37° C. in a humidified atmosphere of 5% CO2 in air. The medium was changed every 3-4 days. After mechanical agitation, 3×10^4 cells were replanted in 35 mm tissue culture dishes containing 4 ml of bath solution. After cell attachment, the dish was mounted on the stage of an inverted phase-contrast microscope (Nikon) for Ca^2+ channel current recording. These cells expressed predominately T channel currents. In experiments where L channels were specifically sought, the cells were grown and maintained at confluence for 3-4 weeks under the same culture conditions with the addition of 2% (vol/vol) dimethyl sulfoxide. Three to five days before use, the cells were replanted with the same medium. These cells expressed predominately L channel currents. […]
(§3) Ca^2+ Channel Current Recording in Neuroblastoma Cells. […] Since the peak currents measured with 20 mM Ba^2+ as the charge carrier were usually small (about 200 pA) the series resistance compensation was not usually employed. […] For every single-cell recording, stable readings were first obtained for 5 min; the drug was then added to the bath solution. […]

[3] = test system: L type calcium channel; experiment: L type calcium channel currents in N1E115 neuroblastoma cells (whole-cell patch-clamp); type: cell-based, mouse; details: same concentration (100 μM); N1E-115 cells
Description: as §1, §2, §3

[4] = test system: rats; details: rat, in vivo; cited from earlier work
[5] = test system: choline uptake into synaptosomes, whole brain; details: Benishin 1992 / previously demonstrated; cited from earlier work
[6] = test system: ACh in the cortical and hippocampal regions of the brain; details: U.S. Pat. No. 5,137,878; cited from earlier work
[7] = test system: 5-hydroxytryptamine; details: rat and mouse brain; Zhang et al 1990; cited from earlier work

Question: With `CC(C)=CCC[C@](C)(O[C@@H]1O[C@H](CO[C@@H]2O[C@H](CO)[C@@H](O)[C@H](O)[C@H]2O)[C@@H](O)[C@H](O)[C@H]1O)[C@H]1CC[C@]2(C)[C@@H]1[C@H](O)C[C@@H]1[C@@]3(C)CC[C@H](O[C@@H]4O[C@H](CO)[C@@H](O)[C@H](O)[C@H]4O[C@@H]4O[C@H](CO)[C@@H](O)[C@H](O)[C@H]4O)C(C)(C)[C@@H]3CC[C@]12C` [Rb1, ginsenoside Rb1] as the compound, how does the “choline uptake, Rb1” value [1] read?
Answer: Its value is 126 % control and 111 % control and 125 % control.

Question: What about the “effect on T type calcium channel currents” value [2] of the same compound?
Answer: The value was “significant inhibitory effect; also recorded: inhibitory effects”.

Question: And the “effect on L type calcium channel currents” value [3]?
Answer: Its value is “significant inhibitory effect; also recorded: inhibitory effects”.

Question: What about the “learning and memory (literature)” value [4] of the same compound?
Answer: Its value is “enhance learning and memory”.

Question: What about the “choline uptake (literature)” value [5] of the same compound?
Answer: Its value is “increase choline uptake”.

Question: What about the “availability of ACh” value [6] of the same compound?
Answer: Its value is “enhance the availability of ACh”.

Question: And the “symptoms of Alzheimer-type senile dementia” value [6]?
Answer: The value was “alleviate the symptoms of Alzheimer-type senile dementia”.

Question: And the “levels of 5-hydroxytryptamine and 5-hydroxyindoleacetic acid” value [7]?
Answer: The value was “decrease the levels”.

Question: Which “effect on T type calcium channel currents” value [2] does the source give for `CC(C)=CCC[C@](C)(O[C@@H]1O[C@H](CO)[C@@H](O)[C@H](O)[C@H]1O)[C@H]1CC[C@]2(C)[C@@H]1[C@H](O)C[C@@H]1[C@@]3(C)CC[C@H](O)C(C)(C)[C@@H]3[C@@H](O[C@@H]3O[C@H](CO)[C@@H](O)[C@H](O)[C@H]3O)C[C@]12C` [Rg1, ginsenoside Rg1] here?
Answer: The value was “significant inhibitory effect; also recorded: inhibitory effects”.

Question: What about the “effect on L type calcium channel currents” value [3] of the same compound?
Answer: Its value is “significant inhibitory effect; also recorded: inhibitory effects”.

Question: What about the “availability of ACh” value [6] of the same compound?
Answer: The value was “enhance the availability of ACh”.

Question: What about the “symptoms of Alzheimer-type senile dementia” value [6] of the same compound?
Answer: The value was “alleviate the symptoms of Alzheimer-type senile dementia”.

Question: And the “levels of 5-hydroxytryptamine and 5-hydroxyindoleacetic acid” value [7]?
Answer: Its value is “decrease the levels”.

— US6083932A, “Pharmaceutical compositions derived from ginseng and methods of treatment using same” (CV Technologies Inc., priority 1998, dated 2000)
